Source: US20120122936A1, “LEAVE-ON NONSOLID SKIN CONDITIONING COMPOSITIONS CONTAINING 12-[(12-HYDROXYOCTADECANOYL)OXY] OCTADECANOIC ACID” (CONOPCO, INC., D/B/A UNILEVER, priority 2010, published 2012)

What was measured:
[1] = tested on: primary human keratinocytes; assay: Involucrin expression (differentiation) in primary human keratinocytes, Western blot; format: cell-based; conditions: for Involucrin expression (arbitrary unit) at day 1: day 1 (24 h), 0.1% DMSO control 27.85; for Involucrin expression (arbitrary unit) at day 2: day 2 (48 h), 0.1% DMSO control 33.91; for Effect on human keratinocyte differentiation (involucrin expression compared to vehicle control): vs 0.1% DMSO, day 2
Protocol: The effect of 12HSA and 12-[(12-hydroxyoctadecanoyl)oxy]octadecanoic acid on differentiation in primary human keratinocytes was evaluated.
The compounds were dissolved in DMSO at 10 mM as the initial stock solutions and then diluted to appropriate final concentrations, 0.1 μM, 1 μM, 10 μM for 12-[(12-hydroxyoctadecanoyl)oxy]octadecanoic acid and 1 μM, 10 μM for the monomer with culture medium for treatments. 0.1% DMSO was used as the vehicle control. Primary human keratinocytes (Passage 2) grown to 70% confluency in EpiLife medium (Gibco MEP1500CA, 0.06 mM Calcium), trypsinized, cell number counted and Re-suspended in medium to make final cell counts at 5×10^4/ml. 100, 000 cells seeded per well in a 6 well plate. The cells again grown to 70% confluency, and then treated with 12-HSA monomer, 12-[(12-hydroxyoctadecanoyl)oxy]octadecanoic acid, and 0.1% DMSO as control. Treated cells incubated for 24 h and 48 h, and harvested at the corresponding time points. Proteins were extracted from the cultures and protein concentration was quantified by Quick start Bradford dye reagent (BioRad #500-0205). 5 ug protein samples were subjected to 4-20% protein gel (BioRad Criterion #345-0034), separated by running gel at 175 Volt for about 1 hour. Proteins were transferred to PVDF membrane (iBlot Gel transfer stacks PVDF, Invitrogen IB4010-01). The PVDF membrane was blocked in 1% BSA/PBS for 30 min and incubated with involucrin primary antibody (1:4000 dilution) in 1% BSA/PBS at 4° C. O/N (Sigma 19018), washed three times with TBS-Tween (Sigma T-9039) for 15 min each. The membrane then incubated with a secondary antibody in 1% BSA/PBS at RT for 1 h (Cy5-conjugated Affipure Goat anti mouse IgG, Jackson ImmunoResearch Lab #115-175-003), washed three times with TBS-Tween for 15 min each, and scanned with Licor/Odyssey (Li-Cor Bioscience). The images obtained were analyzed for the involucrin bands for signal intensity by Odyssey v3.0 analysis program (Li-Cor Bioscience).

[2] = Observation of mixtures with lipophilic cosmetically acceptable carriers (gelling vs flowable liquid); format: physicochemical; conditions: for Result of mixtures with indicated carriers: 10% in 90% carrier, summary of Table 3
Protocol: Various mixtures were prepared with common lipohilic cosmetically acceptable carrier that are liquid at temperatures up to 40° C. Observation were recorded in Table 3.

[3] = tested on: primary human neonatal fibroblasts; assay: ATP production by primary human fibroblasts, CellTiter-Glo luminescent cell viability assay; format: cell-based; conditions: for Luminescence reading (average): 2 x 24 h dosing, 4 wells, 0.1% DMSO control 2245457; for Effect on fibroblast energy production (ATP, luminescence readings): statistically significant improvement at 100 μM
Protocol: The effect of 12HSA and 12-[(12-hydroxyoctadecanoyl)oxy]octadecanoic acid on ATP production by primary human fibroblasts was assayed.
The samples were prepared as in Example 2, except the final concentrations were at 0.1 μM, 1 μM, 10 μM, 100 μM for both compounds. Again 0.1% DMSO in media is used as the vehicle control. Primary human neonatal fibroblasts grown in DMEM medium (high glucose supplemented with 2 mM Lglutamine, 10% fetal bovine serum, antibiotic) to 70% confluency, trypsinized, and re-suspended in medium. 7,500 cells seeded per well in the inner 60 wells of a 96-well plate in the same DMEM medium and grown for 3 days. The medium removed and the cells washed with serum-free DMEM, and then dosed with 200 μl serum-free DMEM medium containing appropriate concentrations of the testing compounds. Each dosing was replicated in 4 wells. After 24 hours, test compound solution was removed and the cells were treated with a fresh solution of the same treatment. After another 24 hours, the ATP production of the cultures was assayed by CellTiter-Glo luminescent Cell viability assay (Promega #G7572) and luminescence readings measured. Average readings were calculated for every treatment.
Statistical analysis was done by student t-Test with the assumption that the two samples had two tailed distribution with equal variance.

Observations ([2]; 10% in 90% DC200-10cS)	Observations ([2]; 10% in 90% Light Mineral Oil)	Observations ([2]; 10% in 90% Sunflower seed oil)	Observations ([2]; 10% in 90% Tween40)	Result of mixtures with indicated carriers [2]	Observations ([2]; 10% in 90% cyclomethicone-D5)	Observations ([2]; 10% in 90% isostearyl alcohol)	Observations ([2]; 10% in 90% oleic acid)	Structure (SMILES)	Involucrin expression (arbitrary unit) at day 1 ([1]; 1 μM)	Involucrin expression (arbitrary unit) at day 2 ([1]; 1 μM)	Involucrin expression (arbitrary unit) at day 1 ([1]; 10 μM)	Involucrin expression (arbitrary unit) at day 2 ([1]; 10 μM)	Effect on human keratinocyte differentiation (involucrin expression compared to vehicle control) [1]	Luminescence reading (average) ([3]; 0.1 μM)	Luminescence reading (average) ([3]; 1 μM)	Luminescence reading (average) ([3]; 10 μM)	Luminescence reading (average) ([3]; 100 μM)	Effect on fibroblast energy production (ATP, luminescence readings) [3]	other results
paste	hard gel	hard gel	gel	gelled the carrier	soft gel	gel	gel	CCCCCCC(O)CCCCCCCCCCC(=O)O (stereo not shown) [12HSA, 12-hydroxyoctadecanoic acid, reference compound]	26.7 arbitrary unit	56.03 arbitrary unit	34.51 arbitrary unit	69.52 arbitrary unit	stimulated human keratinocyte differentiation	2359722	2398308	2304763	2151797	did not	Observations ([2]; 10% in 90% Isopropyl palmitate): hard gel
flowable	flowable	clear	clear	flowable, or even clear, liquids	flowable	clear	clear	CCCCCCC(O)CCCCCCCCCCC(=O)OC(CCCCCC)CCCCCCCCCCC(=O)O (stereo not shown) [12-[(12-hydroxyoctadecanoyl)oxy]octadecanoic acid]	36.67 arbitrary unit	33.14 arbitrary unit	33.77 arbitrary unit	29.46 arbitrary unit	did not have an effect	2261382	2550326	2594799	2794979	stimulated fibroblast energy production	Involucrin expression (arbitrary unit) at day 1 ([1]; 0.1 μM): 35.85 arbitrary unit; Involucrin expression (arbitrary unit) at day 2 ([1]; 0.1 μM): 32.61 arbitrary unit; Observations ([2]; 10% in 90% Isopropyl myristate): liquid
